Results from ChEMBL document CHEMBL5126585, “Synthesis and evaluation of 1,2,3-dithiazole inhibitors of the nucleocapsid protein of feline immunodeficiency virus (FIV) as a model for HIV infection” (Bioorg Med Chem, 2022).

Key:
[1] = Cytotoxicity against IL2 independent FL-4 cells assessed as reduction in cell viability measured after 7 days by MTT assay; assay type: toxicity, cell-based, Felis catus; settings: cat, time 7 day
[2] = Therapeutic index, ratio of CC50 for cytotoxicity against IL2 independent FL-4 cells to EC50 for antiviral activity against Feline immunodeficiency virus infected in IL2 independent FL-4 cells; assay type: toxicity, cell-based; settings: cat; read-out: Ratio CC50/EC50
[3] = test system: Feline immunodeficiency virus; assay: Antiviral activity against Feline immunodeficiency virus infected in IL2 independent FL-4 cells assessed as reduction in viral replication treated for 7 days with daily replacement by qRT-PCR analysis; assay type: functional, organism-based; settings: FL-4, 168 h
[4] = Cytotoxicity against CRFK cells assessed as reduction in cell viability incubated for 24 hrs by MTT assay; assay type: toxicity, cell-based, Felis catus; settings: cat
[5] = Cytotoxicity against FEA cells assessed as reduction in cell viability incubated for 24 hrs by MTT assay; assay type: toxicity, cell-based, Felis catus; settings: cat

Compound: Fc1ccc(/N=c2\ssnc2Cl)cc1
- CC50 at 168 h [1]: > 100 µM
- selectivity ratio [2]: > 100
- EC50 [3]: 0.98 µM
- CC50 at 24 h [4]: > 100 µM
- CC50 at 24 h [5]: > 100 µM

Compound: CCCCOc1ccc(/N=c2\ssnc2Cl)cc1
- CC50 at 168 h [1]: > 100 µM
- selectivity ratio [2]: > 3.8
- EC50 [3]: 26 µM
- CC50 at 24 h [4]: > 100 µM
- CC50 at 24 h [5]: > 100 µM

Compound: Clc1nss/c1=N\c1ccc(Oc2ccccc2)cc1
- CC50 at 168 h [1]: > 100 µM
- selectivity ratio [2]: > 2.9
- EC50 [3]: 35 µM
- CC50 at 24 h [4]: > 100 µM
- CC50 at 24 h [5]: > 100 µM

Compound: FC(F)(F)Oc1ccc(/N=c2\ssnc2Cl)cc1Br
- CC50 at 168 h [1]: > 100 µM
- EC50 [3]: > 100 µM
- CC50 at 24 h [4]: > 100 µM
- CC50 at 24 h [5]: > 100 µM

Compound: O=[N+]([O-])c1ccc(/N=c2\ssnc2Cl)cc1
- CC50 at 168 h [1]: 49 µM
- selectivity ratio [2]: 170
- EC50 [3]: 0.29 µM
- CC50 at 24 h [4]: 31 µM
- CC50 at 24 h [5]: 50 µM

Compound: N#Cc1c(Br)cccc1/N=c1\ssnc1Cl
- CC50 at 168 h [1]: 53 µM
- selectivity ratio [2]: 3.5
- EC50 [3]: 15 µM
- CC50 at 24 h [4]: 38 µM
- CC50 at 24 h [5]: 41 µM

Compound: Cc1cc(OC(F)(F)F)ccc1/N=c1\ssnc1Cl
- CC50 at 168 h [1]: > 100 µM
- EC50 [3]: > 100 µM
- CC50 at 24 h [4]: > 100 µM
- CC50 at 24 h [5]: > 100 µM

Compound: N#Cc1cccnc1/N=c1\ssnc1Cl
- CC50 at 168 h [1]: 51 µM
- selectivity ratio [2]: 122
- EC50 [3]: 0.42 µM
- CC50 at 24 h [4]: 3.1 µM
- CC50 at 24 h [5]: 36 µM

Compound: Clc1nss/c1=N\c1cc(-c2ccccc2)n[nH]1
- CC50 at 168 h [1]: 4.9 µM
- selectivity ratio [2]: 9.2
- EC50 [3]: 0.53 µM
- CC50 at 24 h [4]: 18 µM
- CC50 at 24 h [5]: 31 µM

Compound: Clc1nss/c1=N\c1ccccc1Br
- CC50 at 168 h [1]: 39 µM
- selectivity ratio [2]: 3.3
- EC50 [3]: 12 µM
- CC50 at 24 h [4]: > 100 µM
- CC50 at 24 h [5]: > 100 µM

Compound: Clc1ccc(/N=c2\ssnc2Cl)cc1
- CC50 at 168 h [1]: 45 µM
- selectivity ratio [2]: 79
- EC50 [3]: 0.57 µM
- CC50 at 24 h [4]: > 100 µM
- CC50 at 24 h [5]: 51 µM

Compound: Clc1nss/c1=N\c1ccccn1
- CC50 at 168 h [1]: 40 µM
- selectivity ratio [2]: 105
- EC50 [3]: 0.38 µM
- CC50 at 24 h [4]: 29 µM
- CC50 at 24 h [5]: 4.6 µM

Compound: CCOc1cccnc1/N=c1\ssnc1Cl
- CC50 at 168 h [1]: 49 µM
- selectivity ratio [2]: 90
- EC50 [3]: 0.55 µM
- CC50 at 24 h [4]: 42 µM
- CC50 at 24 h [5]: 45 µM

Compound: Clc1ccccc1/N=c1\ssnc1Cl
- CC50 at 168 h [1]: 51 µM
- selectivity ratio [2]: 2.6
- EC50 [3]: 20 µM
- CC50 at 24 h [4]: > 100 µM
- CC50 at 24 h [5]: 25 µM

Compound: Clc1nss/c1=N\c1ccc2c(c1)OCO2
- CC50 at 168 h [1]: 49 µM
- selectivity ratio [2]: 2.5
- EC50 [3]: 20 µM
- CC50 at 24 h [4]: 44 µM
- CC50 at 24 h [5]: 53 µM

Compound: Fc1ccc(F)c(/N=c2\ssnc2Cl)c1
- CC50 at 168 h [1]: 89 µM
- selectivity ratio [2]: 131
- EC50 [3]: 0.68 µM
- CC50 at 24 h [4]: > 100 µM
- CC50 at 24 h [5]: > 100 µM

Compound: N#Cc1ccc(/N=c2\ssnc2Cl)cc1
- CC50 at 168 h [1]: > 100 µM
- selectivity ratio [2]: > 160
- EC50 [3]: 0.62 µM
- CC50 at 24 h [4]: 31 µM
- CC50 at 24 h [5]: 50 µM

Compound: COc1cccc(/N=c2\ssnc2Cl)n1
- CC50 at 168 h [1]: 47 µM
- selectivity ratio [2]: 178
- EC50 [3]: 0.26 µM
- CC50 at 24 h [4]: 34 µM
- CC50 at 24 h [5]: 4.3 µM

Compound: Clc1nss/c1=N\c1ccc(OCc2ccccc2)cc1
- CC50 at 168 h [1]: 44 µM
- selectivity ratio [2]: 1.9
- EC50 [3]: 23 µM
- CC50 at 24 h [4]: > 100 µM
- CC50 at 24 h [5]: 74 µM

Compound: O=[N+]([O-])c1cccnc1/N=c1\ssnc1Cl
- CC50 at 168 h [1]: 2.6 µM
- selectivity ratio [2]: 1.3
- EC50 [3]: 2 µM
- CC50 at 24 h [4]: 21 µM
- CC50 at 24 h [5]: 6.1 µM

Compound: FC(F)(F)Oc1ccc(/N=c2\ssnc2Cl)cc1
- CC50 at 168 h [1]: > 100 µM
- EC50 [3]: > 100 µM
- CC50 at 24 h [4]: > 100 µM
- CC50 at 24 h [5]: > 100 µM

Compound: Cc1cc(/N=c2\ssnc2Cl)n[nH]1
- CC50 at 168 h [1]: 50 µM
- selectivity ratio [2]: 600
- EC50 [3]: 0.083 µM
- CC50 at 24 h [4]: > 100 µM
- CC50 at 24 h [5]: 55 µM

Compound: Clc1nss/c1=N\c1ccc(Br)cc1
- CC50 at 168 h [1]: > 100 µM
- selectivity ratio [2]: > 160
- EC50 [3]: 0.64 µM
- CC50 at 24 h [4]: > 100 µM
- CC50 at 24 h [5]: 40 µM

Compound: FC(F)(F)Oc1ccc(/N=c2\ssnc2Cl)cc1Cl
- CC50 at 168 h [1]: 23 µM
- selectivity ratio [2]: 1
- EC50 [3]: 23 µM
- CC50 at 24 h [4]: 85 µM
- CC50 at 24 h [5]: > 100 µM

Compound: Clc1nss/c1=N\c1ccc(I)cc1
- CC50 at 168 h [1]: 49 µM
- selectivity ratio [2]: 129
- EC50 [3]: 0.38 µM
- CC50 at 24 h [4]: 73 µM
- CC50 at 24 h [5]: 44 µM

Compound: Clc1nss/c1=N\c1cccc(Br)c1
- CC50 at 168 h [1]: > 100 µM
- EC50 [3]: > 100 µM
- CC50 at 24 h [4]: > 100 µM
- CC50 at 24 h [5]: > 100 µM

Compound: Clc1nss/c1=N\c1cccc(Br)n1
- CC50 at 168 h [1]: 44 µM
- selectivity ratio [2]: 92
- EC50 [3]: 0.48 µM
- CC50 at 24 h [4]: 38 µM
- CC50 at 24 h [5]: 52 µM

Compound: Clc1nss/c1=N\c1nccs1
- CC50 at 168 h [1]: 4.7 µM
- selectivity ratio [2]: 1.6
- EC50 [3]: 3 µM
- CC50 at 24 h [4]: 7.6 µM
- CC50 at 24 h [5]: 8.4 µM

Compound: CSc1ccc(/N=c2\ssnc2Cl)cc1
- CC50 at 168 h [1]: 51 µM
- selectivity ratio [2]: 2.4
- EC50 [3]: 21 µM
- CC50 at 24 h [4]: 43 µM
- CC50 at 24 h [5]: 53 µM

Compound: COc1cccnc1/N=c1\ssnc1Cl
- CC50 at 168 h [1]: 61 µM
- selectivity ratio [2]: 21
- EC50 [3]: 2.9 µM
- CC50 at 24 h [4]: 37 µM
- CC50 at 24 h [5]: 37 µM

Compound: Cc1cc(/N=c2\ssnc2Cl)n(Cc2ccccc2)n1
- CC50 at 168 h [1]: 52 µM
- selectivity ratio [2]: 2.4
- EC50 [3]: 22 µM
- CC50 at 24 h [4]: 33 µM
- CC50 at 24 h [5]: 30 µM

Compound: Clc1nss/c1=N\c1cc(-c2ccccc2)nn1Cc1ccccc1
- CC50 at 168 h [1]: 53 µM
- selectivity ratio [2]: 1.7
- EC50 [3]: 31 µM
- CC50 at 24 h [4]: 37 µM
- CC50 at 24 h [5]: 29 µM

Compound: FC(F)(F)c1ccc(/N=c2\ssnc2Cl)cc1
- CC50 at 168 h [1]: > 100 µM
- selectivity ratio [2]: > 6.7
- EC50 [3]: 15 µM
- CC50 at 24 h [4]: > 100 µM
- CC50 at 24 h [5]: > 100 µM
